Assay results as given in patent US20250152593A1, “p38 MAPK INHIBITORS AND USES THEREOF” (CITY OF HOPE, priority 2023, published 2025).
Blank lines part the entries; values can stand above or below the compound they belong to.

What was measured:
p38 MAPK alpha = p38 MAPK alpha (Homo sapiens, UniProt Q16539); assay: in vitro kinase assay, p38 MAPK alpha catalytic activity; format: biochemical
Procedure: (§1) FIGS. 6A-6C. In vitro kinase assays for p38a (FIG. 6A), p38β(FIG. 6B), and […] (FIG. 6C) at 100 nM.
(§2) Quinazoline derivatives were initially tested with various cancer types of cell lines using a cell-based assay.

p38 MAPK beta = p38 MAPK beta (Homo sapiens, UniProt Q15759); assay: in vitro kinase assay, p38 MAPK beta catalytic activity; format: biochemical
p38 MAPK beta, sequence (Q15759 whole entry): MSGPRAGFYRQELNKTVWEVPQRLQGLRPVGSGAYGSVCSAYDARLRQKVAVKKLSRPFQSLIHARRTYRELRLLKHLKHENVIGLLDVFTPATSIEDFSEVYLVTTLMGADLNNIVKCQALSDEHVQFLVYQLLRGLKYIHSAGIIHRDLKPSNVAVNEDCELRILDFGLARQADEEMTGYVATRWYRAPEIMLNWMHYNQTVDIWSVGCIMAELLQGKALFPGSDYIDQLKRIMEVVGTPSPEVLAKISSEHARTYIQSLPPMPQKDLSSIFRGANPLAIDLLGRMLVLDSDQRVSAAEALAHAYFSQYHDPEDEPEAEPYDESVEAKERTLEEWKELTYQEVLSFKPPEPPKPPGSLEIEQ
Procedure: as §1, §2

K562 CML cells = assay: cell-based assay, K562 CML cells; conditions: Homo sapiens, read-out: IC50 against K562 CML cells
Description: as §2

Hut78 cells = assay: combination study of HDAC inhibitors and CEM451 with Hut78 cells; format: cell-based; conditions: for Effect of CEM451 / Effect of Romidepsin / Effect of SAHA: Hut78
[1] = test system: RPMI8226 multiple myeloma cells; assay: combination of SAHA and CEM451 with RPMI8226 multiple myeloma cells; format: cell-based; conditions: for Effect of CEM451 / Effect of SAHA: RPMI8226
hematopoietic cell lines = assay: antitumor activity against hematopoietic cell lines; format: cell-based
Description: as §2

p38 MAPK alpha, sequence (Q16539 whole entry): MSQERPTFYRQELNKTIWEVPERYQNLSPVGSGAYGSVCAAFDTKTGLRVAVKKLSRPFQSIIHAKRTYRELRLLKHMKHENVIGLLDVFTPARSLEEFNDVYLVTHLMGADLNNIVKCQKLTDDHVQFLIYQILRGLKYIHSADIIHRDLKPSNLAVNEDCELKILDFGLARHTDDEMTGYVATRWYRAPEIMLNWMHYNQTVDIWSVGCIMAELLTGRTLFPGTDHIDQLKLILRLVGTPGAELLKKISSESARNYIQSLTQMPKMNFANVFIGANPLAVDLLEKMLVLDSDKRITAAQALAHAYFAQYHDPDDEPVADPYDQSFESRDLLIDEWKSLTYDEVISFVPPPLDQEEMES

IC50 (p38 MAPK alpha): 0.0062 µM
IC50 (p38 MAPK beta): 0.013 µM
IC50 (K562 CML cells): 0.54 µM
SMILES: Cc1ccc(NC(=O)c2cccc(C(F)(F)F)c2)cc1Nc1ncnc2nc(NC3CC3)ncc12 [CEM451, N-(3-((7-(cyclopropylamino)pyrimido[4,5-d]pyrimidin-4-yl)amino)-4-methylphenyl)-3-(trifluoromethyl)benzamide]
Effect of CEM451 (Hut78 cells; Romidepsin combination study, CEM451 5 μM): 0.57
Effect of CEM451 (Hut78 cells; Romidepsin combination study, CEM451 10 μM): 0.72
Effect of CEM451 (Hut78 cells; Romidepsin combination study, CEM451 15 μM): 0.83
Effect of CEM451 (Hut78 cells; high doses study with SAHA, CEM451 5 μM): 0.48
Effect of CEM451 (Hut78 cells; high doses study with SAHA, CEM451 10 μM): 0.65
Effect of CEM451 (Hut78 cells; high doses study with SAHA, CEM451 15 μM): 0.81
Effect of CEM451 (Hut78 cells; low doses study, CEM451 0.5 μM): 0.24
Effect of CEM451 (Hut78 cells; low doses study, CEM451 1 μM): 0.26
Effect of CEM451 (Hut78 cells; low doses study, CEM451 3 μM): 0.45
effect in combination with SAHA (Hut78 cells; Hut78 CTCL cells): synergistic effects
Effect of CEM451 ([1]; CEM451 5 μM): 0.47
Effect of CEM451 ([1]; CEM451 10 μM): 0.71
Effect of CEM451 ([1]; CEM451 15 μM): 0.81
effect in combination with SAHA ([1]; RPMI8226 MM cells): synergistic effects
antitumor activities against hematopoietic cell lines (hematopoietic cell lines): broadly showed antitumor activities

SMILES: C/C=C1\NC(=O)[C@H]2CSSCC/C=C/[C@H](CC(=O)N[C@H](C(C)C)C(=O)N2)OC(=O)[C@H](C(C)C)NC1=O [Romidepsin, reference compound]
Effect of Romidepsin (Hut78 cells; Romidepsin 0.001 μM): 0.1
Effect of Romidepsin (Hut78 cells; Romidepsin 0.0015 μM): 0.58
Effect of Romidepsin (Hut78 cells; Romidepsin 0.002 μM): 0.92

SMILES: O=C(CCCCCCC(=O)Nc1ccccc1)NO [SAHA, reference compound]
Effect of SAHA (Hut78 cells; high doses study, SAHA 0.6 μM): 0.16
Effect of SAHA (Hut78 cells; high doses study, SAHA 0.9 μM): 0.27
Effect of SAHA (Hut78 cells; high doses study, SAHA 1.2 μM): 0.74
Effect of SAHA (Hut78 cells; low doses study, SAHA 0.6 μM): 0.3
Effect of SAHA (Hut78 cells; low doses study, SAHA 0.9 μM): 0.59
Effect of SAHA (Hut78 cells; low doses study, SAHA 1.2 μM): 0.84
Effect of SAHA ([1]; SAHA 0.6 μM): 0.63
Effect of SAHA ([1]; SAHA 0.9 μM): 0.8
Effect of SAHA ([1]; SAHA 1.2 μM): 0.91
